From article PMC4136845, “Evaluation of Antimalarial Activity and Toxicity of a New Primaquine Prodrug” (PLoS ONE, 2014)
“And” between values parts separate entries of the source, which are not always exact repeats. Equal values may be shown once. “Also recorded” adds a separate entry of the source. Marks after values point to notes of the source that are not given here.

How the values were obtained:
[1] = system: male Wistar rats; assay: Hemogram of rats treated with multiple doses; conditions: gavage four times a day for 4 days, PQ 2.44 mg/kg free base, Phe-Ala-PQ 9.00 mg/kg, mean (CI 95)
Method: (§1) The biochemical, hematological and histopathological analyses were carried out in male Wistar rats (weighing 200–250 g). They were housed in wire cages, five animals per cage, with free access to food and water. The study protocol was approved by The Research Ethics Committee of the School of Pharmaceutical Sciences, UNESP, Araraquara (process 06/2009). […] After treatment with the drugs, the animals were decapitated for collection of blood and samples of liver and kidneys (preserved in 10% formaldehyde).
(§2) In biochemical analysis, aspartate aminotransferase (AST), alanine aminotransferase (ALT), gamma-glutamyltransferase (GGT), bilirubin, creatinine and urea kits were purchased from LabTest Diagnostica SA (Lagoa Santa,Minas Gerais, Brazil). Alkaline phosphatase (ALP) was assayed by the conversion of p-nitrophenyl phosphate to p-nitrophenol in a kinetic reaction, measured with a spectrophotometer at 405 nm. To determine the level of methemoglobin in relation to oxyhemoglobin, we used the method described by Naoum and collaborators. The blood was hemolyzed and the hemoglobin stabilized in 60 mM phosphate buffer, pH 6.8. The levels of methemoglobin and oxyhemoglobin were determined by spectrophotometric absorption at 630 and 540 nm. The total and differential white blood cell (WBC) counts were performed using a Neubauer chamber and blood smears, respectively. The hematocrit was determined using conventional method by microcapillary centrifugation.

[2] = system: monkey kidney cell line (BGM); assay: In vitro cytotoxicity, MTT assay, BGM cells
Method: (§3) The HepG2 (ATCC HB-8065) was originally received from the New University of Lisbon, Portugal, and BGM received as a gift from the Federal University of Minas Gerais and originally purchased from Rio de Janeiro Cell Bank (BCRJ 0049). When confluent, the cells were washed with RPMI culture medium, then trypsinized, distributed in a flat-bottom 96-well plate (5×10^3 cells/well), and incubated for 18 h at 37°C for cell adherence as described elsewhere. The compound (20 µL) was added to each well at various concentrations (1-1000 µg/mL) and the plate incubated for 24 h in a 5% CO2 atmosphere at 37°C. MTT [3-(4,5-dimethylthiazol-2-yl)-2,5-diphenyltetrazolium bromide] (5 mg/mL; 20 µL/well) was added to evaluate mitochondrial viability, and the plates were incubated again for 3 h, under the same culture conditions. The supernatant was carefully removed, and 100 µL of DMSO were added with mixing to dissolve the formazan crystals formed. The optical density was determined at 570 and 630 nm (background) (SpectraMax 340PC 384, Molecular Devices). Cell viability was expressed as the percentage of the control absorbance of the untreated cells after subtracting the appropriate background. The minimum lethal dose for 50% of the cells (MLD50) was determined as previously described.

[3] = system: male Wistar rats; assay: Biochemical analysis of serum of rats treated with multiple doses; conditions: rat serum, gavage four times a day for 4 days, PQ diphosphate 2.44 mg/kg free base, Phe-Ala-PQ 9.00 mg/kg, mean
Method: as §1, §2

[4] = Partition coefficient (log P) by HPLC method, OECD guideline; conditions: HPLC method
Method: A Waters Alliance HPLC system equipped with a UV-Vis 2487 detector was employed. The chromatographic analysis was performed on a Symmetry C18 HPLC column (4.6 mm×250 mm, 5 µm particle size) and the mobile phase was methanol:water (70∶30), with detection at 256 nm. A flow rate of 1.0 mL/min was used and 50-µL samples were injected into the chromatographic system. The run time was approximately 15 min. The analytical curve was constructed on the basis of the retention time of the standards (purchased from Sigma Aldrich, NJ, USA) butanone, acetanilide, phenol, phenacetin, benzene, toluene, chlorobenzene and thymol, dissolved in mobile phase at a concentration of 50 µg/mL. The substances were analyzed in triplicate and the average retention time for each standard was used. The capacity factor (k) was obtained by the equation [20]: k = (tR - t0) /t0, where tR is the retention time of the test substance and t0 the dead-time. The log k values were correlated with the partition coefficients of the standards for construction of the analytical curve. […] The coefficient of determination (r^2) was also calculated to evaluate the linearity of the analytical curve.

[5] = system: male Wistar rats; assay: Histopathological evaluation of rat liver and kidney; conditions: multiple doses
Method: as §1
The liver and kidney were removed from each rat to perform the histopathological evaluation. Tissue pieces were fixed in 10% formaldehyde and embedded in paraffin. Each organ was then cut into 4-µm thick sections and subjected to standard hematoxylin/eosin staining. Hepatic glycogen staining in sections was carried out using the standard periodic acid-Schiff (PAS) reaction, followed by hematoxylin counterstaining, and the periportal and centrilobular regions of the liver were analyzed according to Thoolen et al.. Five periportal regions and five centrilobular regions were photographed in each animal, for a total of 300 photographs, and these images were adjusted using Pixelmator software (2.2.1). Nuclear hepatocyte glycogen levels were classified as: A- PAS<50% of cells, B- PAS≥50% of cells and C- PAS-negative. Additionally, liver sections were examined for the occurrence of microvesicular fatty changes, as well as the kidney sections for inflammatory infiltration, reduction of Bowman's spaces and changes in renal tubules. Statistical analysis was performed in Graphpad Prism 5.0b. Data for each organ analysis were expressed qualitatively and quantitatively, and normal distribution was verified (D'Agostin and Person). t-tests and chi-square tests were performed, and non-parametric data were evaluated using the Mann-Whitney or Kruskal-Wallis test for pair wise comparisons of groups. The significance level was set at 5%.

[6] = system: human hepatoma cell line (HepG2); assay: In vitro cytotoxicity, MTT assay, HepG2 cells
Method: as §3

[7] = previous study; cited from earlier work
[8] = system: G6PD-deficient human red blood cells; assay: In vitro hemolysis assay
Method: The hemolytic rate was calculated using 0.05% saponin as the positive control for hemolysis of human RBC, which was considered 100% [24], [25]. The diagnosis of G6PD deficiency was performed using a technique based on the principle that hemoglobin oxidized to methemoglobin, by the action of sodium nitrite, is catalyzed by an enzyme, in the presence of methylene blue [26]. […] All participants signed a written informed consent before blood collection. The consent was approved by the Ethics Committee of CEPEM.

[9] = MTT, 24 h, expressed as PQ equivalents

SMILES: COc1cc(NC(C)CCCNC(=O)[C@H](C)NC(=O)[C@@H](N)Cc2ccccc2)c2ncccc2c1 (stereo partly drawn) [Phe-Ala-PQ, phenylalanine-alanine-primaquine]
- Eosinophils Absolute (No. cells) [1]: 40 (0–152) No. cells
- Eosinophils Relative (%) [1]: 0.40 (0.00–1.51) %
- Hematocrit [1]: 47 (45–48) %
- Hemoglobin [1]: 11.76 (11.38–12.14)
- Leukocytes [1]: 8700 ^a ^, ^b (5623–11777) /mm^3
- Lymphocytes Absolute (No. cells) [1]: 7691 ^a ^, ^b (5947–9976) No. cells
- Lymphocytes Relative (%) [1]: 83.0 ^a (75.8–90.2) %
- Methemoglobin [1]: 3.65 (3.45–3.85) %
- Monocytes Absolute (No. cells) [1]: 812 ^b (0–1728) No. cells
- Monocytes Relative (%) [1]: 7.60 ^b (0.06–15.1) %
- Neutrophils Band Absolute (No. cells) [1]: 0 No. cells
- Neutrophils Band Relative (%) [1]: 0%
- Neutrophils Segmented Absolute (No. cells) [1]: 895 (163–1626) No. cells
- Neutrophils Segmented Relative (%) [1]: 9.00 ^a (2.55–15.4) %
- MDL50 BGM, PQ equivalents [2, 9]: 110 µg/mL
- MDL50 (Mean±SD) BGM ([2]; MTT, 24 h incubation): 580 µg/mL and 580 ± 86 µg/mL
- Toxicity to BGM cells compared to PQ ([2]; ratio of MDL50 values): about two times less toxic
- ALP [3]: 93.52 U/L
- ALT [3]: 185.7 ^a, ^b U/L
- AST [3]: 290.6^a, ^b U/L
- Creatinine [3]: 0.529 mg/dL
- Direct bilirubin [3]: 0.147 mg/dL
- GGT [3]: 13.03^a, ^b U/L
- Total bilirubin [3]: 0.711 mg/dL
- Urea [3]: 5.734^a, ^b mg/dL
- Urea ([3]; listed as prodrug): 5.734 mg/dL
- log P [4]: 0.94
- Liver glycogen: positive cells (<50%), periportal region [5]: increase
- Liver glycogen: PAS-positive cells (>50%), overall analysis of the liver ([5]; compared to control group): more PAS-positive cells (>50%)
- Liver cells with fatty microvesicular changes ([5]; compared to the PQ group, listed as prodrug): fewer cells with fatty microvesicular changes; also recorded: lower percentage of cells with fatty microvesicular changes
- Liver glycogen: PAS-positive cells (total), periportal region ([5]; compared to the control group): more PAS-positive cells (total) compared to the control group
- Histopathological analysis of the kidney ([5]; hematoxylin/eosin): normal structures, with no alteration in the glomeruli and renal tubules
- MDL50 HepG2, PQ equivalents [6, 9]: 175 µg/mL
- MDL50 (Mean±SD) HepG2 ([6]; MTT, 24 h incubation): 920 µg/mL and 920 ± 1 µg/mL
- Toxicity to HepG2 cells compared to PQ ([6]; ratio of MDL50 values): five times less toxic
- oral bioavailability [7]: approximately 50%
- Hemolysis % ([8]; 125 µg/mL (Phe-Ala-PQ: 23.7 µg/mL PQ equivalents)): 0%
- Hemolysis % ([8]; 500 µg/mL (Phe-Ala-PQ: 95 µg/mL PQ equivalents)): 51%
- Hemolysis ([8]; concentrations equal to or less than 250 µg/mL (47.5 µg/mL PQ equivalents)): did not cause hemolysis
